# Laboratory results: US9210928B2, “Plant development control composition” (Syngenta Crop Protection, LLC, priority 2008, dated 2015)
# Entries after “also recorded” stand apart in the source; their conditions may differ.
# How the values were obtained:
# Details in all cases: 100 μM inhibitor, 16 hours; FIG. 4
# LeCCD1a = assay: In vivo enzyme assay in β-carotene-producing E. coli expressing LeCCD1a; assay type: cell-based, Solanum lycopersicum
# Excerpt: (§1) In vivo enzyme assays in E. coli—The genes of interest (supplemental Table S1) were cloned into the vector pET30c (Novagen) fused directly to the initial ATG codon with no tag, or into pGEX-4T such that the gene was fused to an N-terminal GST tag. All genes were full length except AtCCD7, which had the chloroplast signal sequence removed (supplemental methods). […] Therefore, this construct was used in subsequent assays. The plasmids were transferred to the E. coli expression strain BL21(DE3), harbouring pAC-BETA (38), and therefore producing β-carotene.
# (§2) For each inhibitor assay, 2.5 ml LB media with the appropriate antibiotics (25 μg ml^−1 chloramphenicol and 50 μg ml^−1 kanamycin or 100 μg ml^−1 ampicillin) and 2.5 μM IPTG, was prepared. Inhibitors (0.1 M in 100% ethanol) were added to the media to a final concentration of 100 μM. The media was then inoculated with 0.25 ml of overnight culture (grown at 37° C. with the appropriate antibiotics) and incubated with shaking (200 rpm) at 28° C. for 16 hours. One ml of culture was harvested by microcentrifugation and resuspended thoroughly in 1 ml ethanol containing 0.2% Triton X-100. After vortexing, the extract was incubated at room temperature in the dark for 3 hours, again vortexed and then spun in a microcentrifuge for 5 min at 13000 rpm. The supernatant was removed and the O.D.453-O.D.550 was measured. The amount of β-carotene was calculated using a standard curve generated from a dilution series of β-carotene (Sigma) in ethanol with 0.2% Triton X-100; the absolute levels of β-carotene are shown in FIG. 8. The relative inhibition was calculated by the equation: (Ci−Cc)/(C1−Cc)×100, where Ci is the carotenoid level with inhibitor and CCD present, Cc is the level with CCD but without the inhibitor and C1 is the level in a strain where lacZ is expressed instead of the CCD, and no inhibitor is present. Thus the increase in β-carotene due to inhibition of the CCD (C1−Cc) was expressed relative to the maximum possible β-carotene content when CCD is absent (C1−Cc).
# In vivo activity of inhibitors applied to E. coli strains expressing CCDs—Coloured E. coli strains that produce various carotenoids can be constructed by expression of enzymes for carotenoid synthesis (26). Upon co-expression of the appropriate CCD, the bacteria lose their colour due to cleavage of the carotenoids to colourless products (4,6,27). This technique was employed here to further explore the specificity of inhibitors, and to test their activity in vivo. The level of carotenoid in each CCD-expressing strain was compared to the level of the carotenoid in a control strain producing β-carotene but lacking any CCD gene. The difference in the carotenoid levels gave a measure of CCD activity, and inhibition of this activity was measured by addition of inhibitors to the growing medium.
# The inhibitors were tested against four β-carotene-producing E. coli strains (supplemental Table S1). Three of the strains expressed highly divergent CCDs that cleave at the 9,10 position: AtCCD7 from Arabidopsis (21) and MmBCO2 from mouse (6) which both cleave at a single site (9,10 or 9′,10′ but not both), and the tomato enzyme LeCCD1a (44) which cleaves at both sites in the same substrate molecule (9,10/9′,10′ activity). The fourth strain expressed another mouse CCD, MmBCO1 (47), which cleaves centrally at 15,15′. […]
# AtCCD7 = target: T1, AtCCD7 (Arabidopsis thaliana, UniProt Q7XJM2); assay: In vivo enzyme assay in β-carotene-producing E. coli expressing AtCCD7; assay type: cell-based
# T1 construct: expressed in transfected cells; host or cells: E. coli BL21(DE3) harbouring pAC-BETA
# T1 sequence (Q7XJM2 32-618): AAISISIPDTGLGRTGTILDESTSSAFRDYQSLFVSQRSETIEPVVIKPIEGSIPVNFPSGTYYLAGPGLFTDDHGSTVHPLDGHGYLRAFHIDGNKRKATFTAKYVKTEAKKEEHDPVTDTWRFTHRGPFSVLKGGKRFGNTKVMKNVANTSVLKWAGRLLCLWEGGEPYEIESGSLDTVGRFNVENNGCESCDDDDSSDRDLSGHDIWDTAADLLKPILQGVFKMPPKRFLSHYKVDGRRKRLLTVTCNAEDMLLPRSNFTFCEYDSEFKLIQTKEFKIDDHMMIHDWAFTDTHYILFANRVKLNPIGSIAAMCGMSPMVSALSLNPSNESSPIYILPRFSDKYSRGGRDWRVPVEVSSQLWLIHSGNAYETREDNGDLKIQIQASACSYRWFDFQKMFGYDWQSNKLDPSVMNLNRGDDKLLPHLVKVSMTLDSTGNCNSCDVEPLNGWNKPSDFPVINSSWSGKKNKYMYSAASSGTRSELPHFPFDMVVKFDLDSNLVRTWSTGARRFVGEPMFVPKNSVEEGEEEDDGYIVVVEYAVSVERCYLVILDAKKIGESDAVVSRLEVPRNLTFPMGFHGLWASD
# Excerpt: as §1
# as §2, with “After vortexing, the extract was incubated at room temperature in the dark for 3 hours, again vortexed and then spun in a microcentrifuge for 5 min at 13000 rpm.” left out, “Thus the increase in β-carotene due to inhibition of the CCD (C1−Cc) was expressed relative to the maximum possible β-carotene content when CCD is absent (C1−Cc).” left out
# In vivo activity of inhibitors applied to E. coli strains expressing CCDs—Coloured E. coli strains that produce various carotenoids can be constructed by expression of enzymes for carotenoid synthesis (26). […] The difference in the carotenoid levels gave a measure of CCD activity, and inhibition of this activity was measured by addition of inhibitors to the growing medium. […]
# MmBCO2 = target: T2, MmBCO2 (Mus musculus, UniProt Q99NF1); assay: In vivo enzyme assay in β-carotene-producing E. coli expressing MmBCO2; assay type: cell-based
# T2 construct: All genes were full length except AtCCD7; expressed in transfected cells; host or cells: E. coli BL21(DE3) harbouring pAC-BETA
# T2 sequence (Q99NF1 1-532): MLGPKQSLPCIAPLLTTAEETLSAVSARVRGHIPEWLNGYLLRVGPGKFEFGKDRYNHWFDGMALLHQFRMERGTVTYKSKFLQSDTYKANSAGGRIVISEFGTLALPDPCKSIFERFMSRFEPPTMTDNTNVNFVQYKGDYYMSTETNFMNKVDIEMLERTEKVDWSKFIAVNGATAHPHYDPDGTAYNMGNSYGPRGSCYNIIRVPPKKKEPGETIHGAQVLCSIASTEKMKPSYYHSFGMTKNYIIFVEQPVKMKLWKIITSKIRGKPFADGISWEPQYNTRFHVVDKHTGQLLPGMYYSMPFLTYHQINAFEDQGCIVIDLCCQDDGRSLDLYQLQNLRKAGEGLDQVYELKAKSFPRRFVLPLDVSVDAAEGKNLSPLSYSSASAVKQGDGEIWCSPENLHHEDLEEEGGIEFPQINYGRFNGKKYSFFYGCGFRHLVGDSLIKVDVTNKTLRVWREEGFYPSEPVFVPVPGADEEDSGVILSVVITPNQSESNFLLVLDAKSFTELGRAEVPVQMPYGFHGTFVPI
# Excerpt: as §1
# For each inhibitor assay, 2.5 ml LB media with the appropriate antibiotics (25 μg ml^−1 chloramphenicol and 50 μg ml^−1 kanamycin or 100 μg ml^−1 ampicillin) and 2.5 μM IPTG, was prepared. […] The supernatant was removed and the O.D.453-O.D.550 was measured. The amount of β-carotene was calculated using a standard curve generated from a dilution series of β-carotene (Sigma) in ethanol with 0.2% Triton X-100; the absolute levels of β-carotene are shown in FIG. 8. The relative inhibition was calculated by the equation: (Ci−Cc)/(C1−Cc)×100, where Ci is the carotenoid level with inhibitor and CCD present, Cc is the level with CCD but without the inhibitor and C1 is the level in a strain where lacZ is expressed instead of the CCD, and no inhibitor is present. […]
SMILES,relative inhibition of LeCCD1a in E. coli (in words) (LeCCD1a),relative inhibition of AtCCD7 in E. coli (in words) (AtCCD7),relative inhibition of MmBCO2 in E. coli (in words) (MmBCO2)
"COc1ccc(C(=O)N(O)Cc2ccc(F)cc2)cc1 [Compound F2, N-(4-fluorobenzyl)-4-methoxybenzoyl hydroxamic acid]",good activity against LeCCD1a; also recorded: high inhibitory activity,poor inhibition; also recorded: relatively small activity; also recorded: relatively ineffective against AtCCD7; also recorded: poor inhibitors against AtCCD7,most effective compounds at inhibiting MmBCO2; also recorded: high inhibitory activity
"COc1ccc(C(=O)N(O)Cc2ccccc2)cc1 [Compound F1, N-benzyl-4-methoxybenzoyl hydroxamic acid]",good activity against LeCCD1a; also recorded: high inhibitory activity,poor inhibition; also recorded: relatively small activity; also recorded: relatively ineffective against AtCCD7; also recorded: poor inhibitors against AtCCD7,most effective compounds at inhibiting MmBCO2; also recorded: high inhibitory activity
"COc1ccc(C(=O)N(O)Cc2ccccc2)cc1OC [Compound F3, N-benzyl-3,4-dimethoxybenzoyl hydroxamic acid]",virtually none,inactive,
